Test results reported in ChEMBL document CHEMBL1268812, “Piperidine-based renin inhibitors: upper chain optimization” (Bioorg Med Chem Lett, 2010).

Tests used:
Settings in all cases: rat, po, 3 mg/kg
in vivo [1] = test: in vivo
Description: Half life in transgenic rat harboring human angiotensinogen and human renin gene at 3 mg/kg, po

in vivo [2] = test: in vivo; remark: listed apart in the source
Description: Clearance in transgenic rat harboring human angiotensinogen and human renin gene at 3 mg/kg, po

in vivo [3] = test: in vivo; remark: listed apart in the source

| SMILES | half-life (in vivo [1]) [h] | CL/F (in vivo [2]) [mL/min/kg] | bioavailability (in vivo [3]) [%] |
| --- | --- | --- | --- |
| COCCc1ccc(Cl)c(CN(C(=O)[C@H]2CNCC[C@@H]2c2ccc(OCCOc3c(Cl)cc(C)cc3Cl)nc2)C2CC2)c1 | 5.8 | 21 | 35 |
| COCCc1ccc(Cl)c(CN(C(=O)[C@H]2CNCC[C@@H]2c2ccc(N3CC[C@@H](Oc4c(Cl)cc(C)cc4Cl)C3)nc2)C2CC2)c1 | 5.6 | 35 | 8 |
| COCCCc1ccc(Cl)c(CN(C(=O)[C@H]2CNCC[C@@H]2c2ccc(OCCOc3c(Cl)cc(C)cc3Cl)nc2)C2CC2)c1 | 3.6 | 29 | 28 |
